{"source": "patent US9040233B2", "about": "(priority 2007, dated 2015)", "tested_on": "CD8+ T cells", "assay_type": "cell-based, human", "note": "Like-named read-outs stand apart in the source and are kept apart here.", "data": [{"compound": "QTVEDEARRMW", "values": [{"measurement": "#SFU/250,000 CD8+ T-cells", "value": 84}]}, {"compound": "CC(C)[C@H](NC(=O)[C@H](C)NC(=O)[C@H](C)NC(=O)[C@H](CCC(N)=O)NC(=O)[C@H](C)NC(=O)[C@H](C)NC(=O)[C@@H](N)[C@@H](C)O)C(=O)N[C@H](C(=O)N[C@@H](CCCNC(=N)N)C(=O)N[C@@H](Cc1ccccc1)C(=O)O)C(C)C", "values": [{"measurement": "# SFU", "value": "258 SFU/250,000 CD8+ T cells"}]}, {"compound": "CSCC[C@H](NC(=O)[C@@H](N)CCC(=O)O)C(=O)N[C@@H](CCCCN)C(=O)N[C@H](C(=O)N[C@@H](CC(=O)O)C(=O)N[C@@H](C)C(=O)N[C@@H](C)C(=O)N[C@H](C(=O)N[C@@H](CC(C)C)C(=O)O)[C@@H](C)O)[C@@H](C)O", "values": [{"measurement": "# SFU", "setting": "donor D480 (active TB)", "value": "387 SFU/250,000 CD8+ T cells"}]}, {"compound": "ELPQWLSANR", "values": [{"measurement": "# SFU", "value": "<10 SFU/250,000 CD8+ T cells"}]}, {"compound": "CC[C@H](C)[C@H](NC(=O)[C@@H](N)CC(N)=O)C(=O)N[C@@H](CCCNC(=N)N)C(=O)N[C@@H](CCC(N)=O)C(=O)N[C@@H](C)C(=O)NCC(=O)N[C@H](C(=O)N[C@@H](CCC(N)=O)C(=O)N[C@@H](Cc1ccc(O)cc1)C(=O)O)C(C)C", "values": [{"measurement": "# SFU", "setting": "donor D481 (active TB)", "value": "1715 SFU/250,000 CD8+ T cells"}]}, {"compound": "CC(C)[C@H](NC(=O)[C@H](Cc1ccccc1)NC(=O)[C@H](CCCNC(=N)N)NC(=O)[C@H](C)NC(=O)[C@H](Cc1c[nH]cn1)NC(=O)[C@H](C)NC(=O)[C@H](C)N)C(=O)N[C@@H](C)C(=O)N[C@@H](C)C(=O)O", "values": [{"measurement": "# SFU", "setting": "donor D454 (LTBI)", "value": "88 SFU/250,000 CD8+ T cells"}]}, {"compound": "CSCC[C@H](NC(=O)[C@H](CCC(=O)O)NC(=O)[C@H](C)N)C(=O)N[C@@H](CCCCN)C(=O)N[C@H](C(=O)N[C@@H](CC(=O)O)C(=O)N[C@@H](C)C(=O)N[C@@H](C)C(=O)O)[C@@H](C)O", "values": [{"measurement": "# SFU", "setting": "donor D466 (active TB)", "value": "2458 SFU/250,000 CD8+ T cells"}]}, {"compound": "CC[C@H](C)[C@H](NC(=O)[C@@H](NC(=O)[C@H](C)N)C(C)C)C(=O)N[C@@H](CC(N)=O)C(=O)N[C@H](C(=O)N[C@H](C(=O)N[C@@H](CS)C(=O)N[C@@H](CC(N)=O)C(=O)N[C@@H](Cc1ccc(O)cc1)C(=O)NCC(=O)N[C@@H](CCC(N)=O)C(=O)O)[C@@H](C)O)[C@@H](C)O", "values": [{"measurement": "# SFU", "setting": "donor D454 (LTBI)", "value": "24 SFU/250,000 CD8+ T cells"}]}, {"compound": "CC(C)C[C@H](NC(=O)[C@H](Cc1ccc(O)cc1)NC(=O)[C@H](CO)NC(=O)[C@H](CCC(N)=O)NC(=O)[C@H](C)NC(=O)[C@@H](NC(=O)[C@@H]1CCCN1C(=O)[C@H](CO)NC(=O)[C@H](C)N)C(C)C)C(=O)O", "values": [{"measurement": "# SFU", "setting": "donor D432 (active TB)", "value": "210 SFU/250,000 CD8+ T cells"}]}, {"compound": "CC[C@H](C)[C@H](NC(=O)[C@H](Cc1c[nH]cn1)NC(=O)[C@H](C)NC(=O)[C@H](CC(=O)O)NC(=O)[C@H](CC(C)C)NC(=O)[C@@H](N)CC(C)C)C(=O)N1CCC[C@H]1C(=O)N[C@@H](CCC(N)=O)C(=O)N[C@@H](CC(C)C)C(=O)O", "values": [{"measurement": "# SFU", "setting": "donor D504 (LTBI)", "value": "<10 SFU/250,000 CD8+ T cells"}]}, {"compound": "RADEEQQQAL", "values": [{"measurement": "# SFU", "value": "120 SFU/250,000 CD8+ T cells"}]}, {"compound": "CSCC[C@H](NC(=O)[C@H](CCC(=O)O)NC(=O)[C@H](C)N)C(=O)N[C@@H](CCCCN)C(=O)N[C@H](C(=O)N[C@@H](CC(=O)O)C(=O)N[C@@H](C)C(=O)N[C@@H](C)C(=O)N[C@H](C(=O)N[C@@H](CC(C)C)C(=O)N[C@@H](C)C(=O)O)[C@@H](C)O)[C@@H](C)O", "values": [{"measurement": "# SFU", "value": "1993 SFU/250,000 CD8+ T cells"}]}]}
